{"source": "patent US12180252B2", "about": "“Peptide derived from PEP27 peptide and uses thereof” (priority 2021, dated 2024)", "key": {"[1]": {"test_system": "P. aeruginosa 4007", "test": "microbe, parasite or virus in culture", "in_short": "(§1)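 Peptide growth inhibition measured by twofold dilution against mid-log bacteria (2×10^4 cells/100 μl), 37° C, 18 hours; endpoint was absence of cell division. Meropenem, ceftazidime, ceftriaxone and vancomycin were run in parallel.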"}, "[2]": {"test_system": "P. aeruginosa 4891", "test": "microbe, parasite or virus in culture", "in_short": "as §1"}, "[3]": {"test_system": "P. aeruginosa ATCC15692", "test": "microbe, parasite or virus in culture", "in_short": "as §1"}, "[4]": {"test_system": "S. aureus CCARM3089", "test": "microbe, parasite or virus in culture", "settings": "S. aureus CCARM3089, antibiotics-tolerant; 37° C., 18 hours", "in_short": "as §1"}, "[5]": {"test_system": "S. aureus CCARM3090", "test": "microbe, parasite or virus in culture", "settings": "S. aureus CCARM3090, antibiotics-tolerant; 37° C., 18 hours", "in_short": "as §1"}, "[6]": {"test_system": "S. aureus CCARM3518", "test": "microbe, parasite or virus in culture", "settings": "S. aureus CCARM3518, antibiotics-tolerant; 37° C., 18 hours", "in_short": "as §1"}, "[7]": {"test_system": "Sa. typhimurium CCARM8007", "format": "cell-based, Salmonella typhimurium", "settings": "Sa. typhimurium CCARM8007, antibiotics-tolerant; 37° C., 18 hours", "protocol": "(§2) In order to evaluate the antimicrobial activity of the peptides prepared by the method of above 1, a minimal inhibitory concentration (MIC) value as the minimum concentration of a peptide, in which cells are not divided, was measured.\n(§3) Specifically, the strains shown in Table 3 below were purchased, cultured in a medium having a constitutional composition suitable for each strain to a mid-log phase, and then diluted to a concentration of 2×10^4 cells/100 μl to prepare the product on a micro-titration plate (Nunc, USA). Then, PEP27, PEP27-1, PEP27-2 or PEP27-5 peptide synthesized in the above 1 was added to each well by serial dilution ½ times, followed by incubation at 37° C. for 18 hours."}, "[8]": {"test_system": "Sa. typhimurium CCARM8009", "format": "cell-based, Salmonella typhimurium", "settings": "Sa. typhimurium CCARM8009, antibiotics-tolerant; 37° C., 18 hours", "protocol": "as §2, §3"}, "[9]": {"test_system": "Sa. typhimurium KCTC1926", "format": "cell-based, Salmonella typhimurium", "protocol": "as §2, §3"}, "[10]": {"test_system": "HaCaT and MCF-7 cells", "test": "MTT cytotoxicity", "format": "cell-based, human", "settings": "for toxicity relative to the antimicrobial concentration range: mouse erythrocytes and human cells"}, "[11]": {"test_system": "S. aureus ATCC25923", "format": "cell-based, Staphylococcus aureus", "source_text": "(§4) Biofilms may form on a wide variety of surfaces, including living or dead surfaces, and biofilm-associated bacteria are more tolerant to antibiotics than planktonic bacterial cells, making them antibiotic-resistant. To assess the efficacy of PEP27-2 against biofilms, we observed the anti-biofilm activity of PEP27-2 in S. aureus (ATCC 25923 and CCARM 3090), E. coli (ATCC 25922 and CCARM 1238), and P. aeruginosa (ATCC 27853 and 4891).\n(§5) Specifically, among the strains listed in Table 3 above, Staphylococcus aureus, E. coli and Pseudomonas erujinosa, respectively, were cultured in each medium to a mid-log phase, diluted to a cell concentration of 5×10^4 cells/100 μl, and then, inoculated into a micro-plate (SPL). Then, PEP27-2 peptide was diluted 1/10 times with 10 mM PBS solution (pH 7.2) and 10 μl of the solution was added to each well, followed by incubation at 37° C. for 24 hours. After completely removing the supernatant, the solution was fixed with 100% methanol for 15 minutes, stained with a crystal violet dye solution for 1 hour, washed 3 times, and then dissolved in 95% ethanol, followed by measuring the absorbance at a wavelength of 595 nm using a micro titration plate reader, thereby determining a biofilm minimal inhibitory concentration value for each strain."}, "[12]": {"test_system": "S. aureus CCARM3089", "format": "cell-based, Staphylococcus aureus", "settings": "37° C., 24 hours", "source_text": "as §4, §5"}, "[13]": {"test_system": "S. aureus CCARM3090", "format": "cell-based, Staphylococcus aureus", "settings": "37° C., 24 hours", "source_text": "as §4, §5"}, "[14]": {"test_system": "E. coli ATCC25922", "format": "cell-based, Escherichia coli", "source_text": "as §4, §5"}, "[15]": {"test_system": "E. coli ATCC27325", "format": "cell-based, Escherichia coli", "source_text": "as §4, §5"}, "[16]": {"test_system": "E. coli CCARM1238", "format": "cell-based, Escherichia coli", "settings": "37° C., 24 hours", "source_text": "as §4, §5"}, "[17]": {"test_system": "P. aeruginosa ATCC15692", "format": "cell-based, Pseudomonas aeruginosa"}, "[18]": {"test_system": "P. aeruginosa 4891", "format": "cell-based, Pseudomonas aeruginosa", "source_text": "as §4, §5"}, "[19]": {"test_system": "P. aeruginosa ATCC27853", "format": "cell-based, Pseudomonas aeruginosa", "source_text": "as §4, §5"}, "[20]": {"test_system": "P. aeruginosa 4007", "format": "cell-based, Pseudomonas aeruginosa"}}, "note": "Like-named read-outs stand apart in the source and are kept apart here. Where a SMILES comes first, the peptide text is derived from it.", "data": [{"smiles": "CC[C@H](C)[C@H](NC(=O)CN)C(=O)NCC(=O)N[C@@H](C)C(=O)N[C@H](C(=O)N[C@@H](CC(C)C)C(=O)N[C@@H](CCCCN)C(=O)N[C@H](C(=O)N[C@@H](CC(C)C)C(=O)N[C@H](C(=O)N[C@H](C(=O)NCC(=O)N[C@@H](CC(C)C)C(=O)N1CCC[C@H]1C(=O)N[C@@H](C)C(=O)N[C@@H](CC(C)C)C(=O)N[C@H](C(=O)N[C@@H](CO)C(=O)N[C@@H](Cc1c[nH]c2ccccc12)C(=O)N[C@H](C(=O)N[C@@H](CCCCN)C(=O)N[C@@H](CCCNC(=N)N)C(=O)N[C@@H](CCCCN)C(=O)N[C@@H](CCCNC(=N)N)C(=O)N[C@@H](CCC(N)=O)C(=O)N[C@@H](CCC(N)=O)C(N)=O)[C@@H](C)CC)[C@@H](C)CC)[C@@H](C)O)[C@@H](C)O)C(C)C)C(C)C", "note": "[Melittin, reference compound]", "values": [{"measurement": "Minimal inhibitory concentration", "setting": "[1]; P. aeruginosa 4007, antibiotics-tolerant, 37° C., 18 hours", "value": 2, "unit": "µM"}, {"measurement": "Minimal inhibitory concentration", "setting": "[2]; P. aeruginosa 4891, antibiotics-tolerant, 37° C., 18 hours", "value": 2, "unit": "µM"}, {"measurement": "Minimal inhibitory concentration", "setting": "[3]; P. aeruginosa ATCC15692, Gram-negative, 37° C., 18 hours", "value": 2, "unit": "µM"}, {"measurement": "Minimal inhibitory concentration", "setting": "[4]", "value": 2, "unit": "µM"}, {"measurement": "Minimal inhibitory concentration", "setting": "[5]", "value": 4, "unit": "µM"}, {"measurement": "Minimal inhibitory concentration", "setting": "[6]", "value": 2, "unit": "µM"}, {"measurement": "Minimal inhibitory concentration", "setting": "[7]", "value": 4, "unit": "µM"}, {"measurement": "Minimal inhibitory concentration", "setting": "[8]", "value": 4, "unit": "µM"}, {"measurement": "Minimal inhibitory concentration", "setting": "[9]; Sa. typhimurium KCTC1926, Gram-negative, 37° C., 18 hours", "value": 4, "unit": "µM"}, {"measurement": "toxicity relative to the antimicrobial concentration range", "setting": "[10]", "value": "begins to show toxicity within the range of antibacterial activity"}, {"measurement": "Biofilm minimal inhibitory concentration", "setting": "[11]; S. aureus ATCC25923, 37° C., 24 hours", "value": 4, "unit": "µM"}, {"measurement": "Biofilm minimal inhibitory concentration", "setting": "[12]", "value": 4, "unit": "µM"}, {"measurement": "Biofilm minimal inhibitory concentration", "setting": "[13]", "value": 4, "unit": "µM"}, {"measurement": "Biofilm minimal inhibitory concentration", "setting": "[14]; E. coli ATCC25922, 37° C., 24 hours", "value": 4, "unit": "µM"}, {"measurement": "Biofilm minimal inhibitory concentration", "setting": "[15]; E. coli ATCC27325, 37° C., 24 hours", "value": 4, "unit": "µM"}, {"measurement": "Biofilm minimal inhibitory concentration", "setting": "[16]", "value": 4, "unit": "µM"}, {"measurement": "Biofilm minimal inhibitory concentration", "setting": "[17]; P. aeruginosa ATCC15692, 37° C., 24 hours", "value": 4, "unit": "µM"}, {"measurement": "Biofilm minimal inhibitory concentration", "setting": "[18]; P. aeruginosa 4891, 37° C., 24 hours", "value": 8, "unit": "µM"}, {"measurement": "Biofilm minimal inhibitory concentration", "setting": "[19]; P. aeruginosa ATCC27853, 37° C., 24 hours", "value": 4, "unit": "µM"}, {"measurement": "Biofilm minimal inhibitory concentration", "setting": "[20]; P. aeruginosa 4007, 37° C., 24 hours", "value": 4, "unit": "µM"}]}, {"smiles": "CSCC[C@H](N)C(=O)N[C@@H](Cc1c[nH]c2ccccc12)C(=O)N[C@@H](CCCCN)C(=O)N[C@@H](Cc1c[nH]c2ccccc12)C(=O)N[C@@H](Cc1ccccc1)C(=O)N[C@@H](Cc1c[nH]cn1)C(=O)N[C@@H](CC(N)=O)C(=O)N[C@H](C(=O)N[C@@H](CC(C)C)C(=O)N[C@@H](CO)C(=O)N[C@@H](Cc1c[nH]c2ccccc12)C(=O)NCC(=O)N[C@@H](Cc1c[nH]c2ccccc12)C(=O)N[C@@H](CC(C)C)C(=O)N[C@@H](CC(C)C)C(=O)N[C@@H](C)C(=O)N[C@@H](CC(=O)O)C(=O)N[C@@H](CCCCN)C(=O)N[C@@H](CCCNC(=N)N)C(=O)N1CCC[C@H]1C(=O)N[C@@H](C)C(=O)N[C@@H](CCCNC(=N)N)C(=O)N[C@@H](CC(=O)O)C(=O)N[C@@H](Cc1ccc(O)cc1)C(=O)N[C@@H](CC(N)=O)C(=O)N[C@@H](CCCNC(=N)N)C(=O)N[C@@H](CCCCN)C(N)=O)C(C)C", "note": "[PEP27-2] (H-MWKWFHNVLSWGWLLADKRPARDYNRK-NH2)", "values": [{"measurement": "Minimal inhibitory concentration", "setting": "[1]; 4007, 18 h", "value": 4, "unit": "µM"}, {"measurement": "Minimal inhibitory concentration", "setting": "[2]; 4891, 18 h", "value": 4, "unit": "µM"}, {"measurement": "Minimal inhibitory concentration", "setting": "[3]; ATCC15692, 18 h", "value": 4, "unit": "µM"}, {"measurement": "Minimal inhibitory concentration", "setting": "[4]", "value": 4, "unit": "µM"}, {"measurement": "Minimal inhibitory concentration", "setting": "[5]", "value": 4, "unit": "µM"}, {"measurement": "Minimal inhibitory concentration", "setting": "[6]", "value": 4, "unit": "µM"}, {"measurement": "Minimal inhibitory concentration", "setting": "[7]", "value": 4, "unit": "µM"}, {"measurement": "Minimal inhibitory concentration", "setting": "[8]", "value": 4, "unit": "µM"}, {"measurement": "Minimal inhibitory concentration", "setting": "[9]; KCTC1926, 18 h", "value": 8, "unit": "µM"}, {"measurement": "cell viability", "setting": "[10]; 100 μM, 24 h, MTT, HaCaT and MCF-7 cells", "value": "19%-23%"}, {"measurement": "toxicity relative to the antimicrobial concentration range", "setting": "[10]", "value": "not toxic within the range of antimicrobial activity or 4×MIC concentration"}, {"measurement": "maximum percent biofilm inhibition", "setting": "[11]; ATCC25923", "value": 83.4, "unit": "%"}, {"measurement": "Biofilm minimal inhibitory concentration", "setting": "[11]; ATCC25923, 24 h", "value": 4, "unit": "µM"}, {"measurement": "Biofilm minimal inhibitory concentration", "setting": "[12]", "value": 4, "unit": "µM"}, {"measurement": "Biofilm minimal inhibitory concentration", "setting": "[13]", "value": 4, "unit": "µM"}, {"measurement": "maximum percent biofilm inhibition", "setting": "[14]; ATCC25922", "value": 91.8, "unit": "%"}, {"measurement": "Biofilm minimal inhibitory concentration", "setting": "[14]; ATCC25922, 24 h", "value": 8, "unit": "µM"}, {"measurement": "Biofilm minimal inhibitory concentration", "setting": "[15]; ATCC27325, 24 h", "value": 8, "unit": "µM"}, {"measurement": "Biofilm minimal inhibitory concentration", "setting": "[16]", "value": 8, "unit": "µM"}, {"measurement": "Biofilm minimal inhibitory concentration", "setting": "[17]; ATCC15692, 24 h", "value": 8, "unit": "µM"}, {"measurement": "Biofilm minimal inhibitory concentration", "setting": "[18]; 4891, 24 h", "value": 8, "unit": "µM"}, {"measurement": "maximum percent biofilm inhibition", "setting": "[19]; ATCC27853", "value": 81.2, "unit": "%"}, {"measurement": "Biofilm minimal inhibitory concentration", "setting": "[19]; ATCC27853, 24 h", "value": 8, "unit": "µM"}, {"measurement": "Biofilm minimal inhibitory concentration", "setting": "[20]; 4007, 24 h", "value": 8, "unit": "µM"}]}]}
